From paper PMC3256138, “Disease Progression in MRL/lpr Lupus-Prone Mice Is Reduced by NCS 613, a Specific Cyclic Nucleotide Phosphodiesterase Type 4 (PDE4) Inhibitor” (PLoS ONE, 2012)
Where two headings read alike, the source gives them in different places.

Experiments:
PDE1 = assay: IC50 on purified PDE1 isozyme (calmodulin-activated); format: biochemical, bovine; conditions: 1 µM cGMP substrate, CaM modulator; mean±s.e.m. of three experiments
Method: (§1) PDE1, PDE3, PDE4 and PDE5 were isolated by anion exchange chromatography from bovine aortic smooth muscle cytosolic fraction. PDE2 was isolated from human platelets following the method described in [44]. Purified PDEs were stored as small aliquots at −80°C until use. PDE activity was determined at a substrate concentration of 1 µM cAMP or cGMP in the presence of 10,000 cpm [^3H]-cAMP or -cGMP as tracers. PDE1 activity was assessed at 1 µM cGMP in calmodulin-activated state (18 nM calmodulin with 10 µM CaCl2). PDE2 activity was assessed at 1 µM cAMP in activated state (+5 µM cGMP), and PDE3 and PDE4 activities were assessed at 1 µM cAMP in the presence of 1 mM EGTA. […] PDE5 activity was measured at 1 µM cGMP in the presence of 1 mM of EGTA. […] This concentration of DMSO had no effect when tested in control preparation.

PDE4 [1] = assay: IC50 on purified PDE4 isozyme; format: biochemical, bovine; conditions: for IC50: 1 µM cAMP substrate, mean±s.e.m. of three experiments
Method: as §1

PBLs from MRL/lpr mice = assay: Ex vivo LPS-induced TNFα secretion by PBLs from treated MRL/lpr mice; format: in vivo, mouse; conditions: PBLs of 14 week-old mice treated i.v. (100 µg pentoxifylline or denbufylline, 30 µg NCS 613); 5 µg/mL LPS, 24 h
Method: Blood samples were pooled from groups of seven 14 week-old treated mice. PBLs were purified by density separation (Lympholyte-M, d = 1.0875; Cedarlane, Hornby, Canada), washed three times, and resuspended at 5×10^6 cells/ml in L-alanyl-L-glutamine-enriched RPMI 1640 medium (Cambrex, Verviers, Belgium) containing 10% (v/v) fetal calf serum (Dutscher, Brumath, France), HEPES, gentamycin and β-mercaptoethanol. They were cultured in duplicate using 5×10^5 cells/well in the presence of 5 µg/mL LPS from E. coli. Culture supernatants were collected after 24 h and stored frozen at −20°C. TNFα levels were determined using a double-sandwich ELISA (PharMingen, San Diego, CA; detection limit 30 pg/mL) according to the manufacturer's instructions.

MRL/lpr lupus-prone mice = assay: Treatment of MRL/lpr lupus-prone mice with PDE inhibitors: proteinuria, survival, anti-DNA antibodies; conditions: for Median survival time / Mice with positive proteinuria: 100 µg i.v. at 5, 7, 9 and 13 weeks; for Mice with positive proteinuria: at 18 weeks of age; for Age at which treated mice started dying / Proteinuria level compared to the control group: i.v. at 5, 7, 9 and 13 weeks; for Age at which treated mice started dying: control 17 weeks; for Proteinuria level compared to the control group: 100 µg pentoxifylline or 30 µg NCS 613
Method: All mice were monitored regularly for different clinical and biological parameters over 26 weeks. Measurements of outcome included the evaluation of survival and proteinuria measured on a fresh urine sample. Protein levels were determined using colored strips (Albutix; Bayer Diagnostics, Basingstoke, UK) and scored at values corresponding to 30, 100, 300 and >2000 mg/dL.

PDE2 = molecular target: T1, PDE2 (Homo sapiens, UniProt O00408); assay: IC50 on purified PDE2 isozyme (cGMP-activated); format: biochemical; conditions: 1 µM cAMP substrate, cGMP modulator; mean±s.e.m. of three experiments
T1 construct: PDE2 was isolated from human platelets; from tissue; host or cells: human platelets
T1 sequence (O00408 whole entry): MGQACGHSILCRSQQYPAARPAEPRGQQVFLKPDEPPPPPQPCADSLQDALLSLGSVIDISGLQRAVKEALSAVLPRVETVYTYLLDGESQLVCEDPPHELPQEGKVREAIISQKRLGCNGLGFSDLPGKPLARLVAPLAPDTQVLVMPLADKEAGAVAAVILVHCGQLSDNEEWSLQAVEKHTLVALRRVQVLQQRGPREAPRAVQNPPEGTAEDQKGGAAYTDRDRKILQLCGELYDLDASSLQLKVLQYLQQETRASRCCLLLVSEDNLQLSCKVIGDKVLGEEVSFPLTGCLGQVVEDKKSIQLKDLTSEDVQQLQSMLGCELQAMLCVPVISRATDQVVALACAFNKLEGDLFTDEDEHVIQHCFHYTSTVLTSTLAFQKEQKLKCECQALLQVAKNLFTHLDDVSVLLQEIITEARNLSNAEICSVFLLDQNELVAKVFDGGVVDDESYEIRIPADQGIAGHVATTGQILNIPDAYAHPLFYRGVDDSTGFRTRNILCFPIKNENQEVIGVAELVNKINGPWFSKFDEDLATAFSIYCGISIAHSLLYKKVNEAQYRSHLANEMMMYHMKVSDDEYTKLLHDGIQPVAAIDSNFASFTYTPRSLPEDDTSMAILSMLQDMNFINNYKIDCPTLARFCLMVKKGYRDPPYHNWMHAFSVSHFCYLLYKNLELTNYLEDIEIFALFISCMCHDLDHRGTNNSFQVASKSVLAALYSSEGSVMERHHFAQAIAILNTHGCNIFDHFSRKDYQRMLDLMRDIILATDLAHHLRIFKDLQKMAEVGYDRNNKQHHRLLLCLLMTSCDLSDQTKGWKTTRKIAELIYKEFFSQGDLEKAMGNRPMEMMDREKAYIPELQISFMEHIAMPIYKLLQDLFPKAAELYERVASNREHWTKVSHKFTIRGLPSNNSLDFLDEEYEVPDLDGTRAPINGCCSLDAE
Method: as §1

PDE3 = molecular target: T2, PDE3 (Bos taurus, UniProt A0A3Q1M1E8); assay: IC50 on purified PDE3 isozyme; format: biochemical, bovine; conditions: 1 µM cAMP substrate; mean±s.e.m. of three experiments
T2 sequence (A0A3Q1M1E8 1-1126): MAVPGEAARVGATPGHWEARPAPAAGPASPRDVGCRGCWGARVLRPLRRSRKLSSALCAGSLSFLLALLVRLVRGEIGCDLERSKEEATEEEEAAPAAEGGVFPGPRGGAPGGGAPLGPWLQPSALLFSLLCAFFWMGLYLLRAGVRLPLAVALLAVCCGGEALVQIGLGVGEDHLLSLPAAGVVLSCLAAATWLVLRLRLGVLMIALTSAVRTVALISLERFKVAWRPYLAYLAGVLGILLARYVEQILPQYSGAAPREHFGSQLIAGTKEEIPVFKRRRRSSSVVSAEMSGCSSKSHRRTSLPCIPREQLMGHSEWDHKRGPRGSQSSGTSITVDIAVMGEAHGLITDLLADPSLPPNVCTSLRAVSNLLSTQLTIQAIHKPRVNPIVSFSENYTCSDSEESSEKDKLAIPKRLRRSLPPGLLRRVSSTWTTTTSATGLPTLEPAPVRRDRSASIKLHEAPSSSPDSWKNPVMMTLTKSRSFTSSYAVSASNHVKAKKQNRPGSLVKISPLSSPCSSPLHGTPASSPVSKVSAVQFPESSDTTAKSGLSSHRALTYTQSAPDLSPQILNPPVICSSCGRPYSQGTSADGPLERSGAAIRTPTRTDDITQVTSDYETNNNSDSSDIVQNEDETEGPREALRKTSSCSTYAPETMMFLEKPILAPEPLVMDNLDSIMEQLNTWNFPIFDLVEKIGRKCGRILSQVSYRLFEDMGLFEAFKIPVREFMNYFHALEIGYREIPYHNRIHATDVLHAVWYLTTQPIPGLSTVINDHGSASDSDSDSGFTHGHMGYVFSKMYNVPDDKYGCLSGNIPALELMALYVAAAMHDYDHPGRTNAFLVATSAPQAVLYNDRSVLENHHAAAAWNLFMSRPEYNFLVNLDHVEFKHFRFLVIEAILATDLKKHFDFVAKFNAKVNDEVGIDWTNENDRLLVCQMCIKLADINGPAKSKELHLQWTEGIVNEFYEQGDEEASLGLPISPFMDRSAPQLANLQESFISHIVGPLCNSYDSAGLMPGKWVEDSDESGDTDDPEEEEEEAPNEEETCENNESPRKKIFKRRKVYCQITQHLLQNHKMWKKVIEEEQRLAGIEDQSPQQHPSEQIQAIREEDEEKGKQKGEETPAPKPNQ
Method: PDE2 was isolated from human platelets following the method described in [44]. Purified PDEs were stored as small aliquots at −80°C until use. PDE activity was determined at a substrate concentration of 1 µM cAMP or cGMP in the presence of 10,000 cpm [^3H]-cAMP or -cGMP as tracers. PDE1 activity was assessed at 1 µM cGMP in calmodulin-activated state (18 nM calmodulin with 10 µM CaCl2). […] This concentration of DMSO had no effect when tested in control preparation.

PDE5 = molecular target: T3, PDE5 (Bos taurus, UniProt Q28156); assay: IC50 on purified PDE5 isozyme; format: biochemical, bovine; conditions: 1 µM cGMP substrate; mean±s.e.m. of three experiments
T3 construct: isolated by anion exchange chromatography from bovine aortic smooth muscle cytosolic fraction; from tissue; host or cells: bovine aortic smooth muscle cytosolic fraction
Method: as §1

human recombinant PDE4A = molecular target: T4, human recombinant PDE4A (Homo sapiens, UniProt P27815); assay: IC50 on human recombinant PDE4A; format: biochemical
T4 construct: gift of Ted J. Torphy (SmithKline Beecham Pharmaceuticals, King of Prussia, PA, USA)
T4 sequence (P27815 whole entry): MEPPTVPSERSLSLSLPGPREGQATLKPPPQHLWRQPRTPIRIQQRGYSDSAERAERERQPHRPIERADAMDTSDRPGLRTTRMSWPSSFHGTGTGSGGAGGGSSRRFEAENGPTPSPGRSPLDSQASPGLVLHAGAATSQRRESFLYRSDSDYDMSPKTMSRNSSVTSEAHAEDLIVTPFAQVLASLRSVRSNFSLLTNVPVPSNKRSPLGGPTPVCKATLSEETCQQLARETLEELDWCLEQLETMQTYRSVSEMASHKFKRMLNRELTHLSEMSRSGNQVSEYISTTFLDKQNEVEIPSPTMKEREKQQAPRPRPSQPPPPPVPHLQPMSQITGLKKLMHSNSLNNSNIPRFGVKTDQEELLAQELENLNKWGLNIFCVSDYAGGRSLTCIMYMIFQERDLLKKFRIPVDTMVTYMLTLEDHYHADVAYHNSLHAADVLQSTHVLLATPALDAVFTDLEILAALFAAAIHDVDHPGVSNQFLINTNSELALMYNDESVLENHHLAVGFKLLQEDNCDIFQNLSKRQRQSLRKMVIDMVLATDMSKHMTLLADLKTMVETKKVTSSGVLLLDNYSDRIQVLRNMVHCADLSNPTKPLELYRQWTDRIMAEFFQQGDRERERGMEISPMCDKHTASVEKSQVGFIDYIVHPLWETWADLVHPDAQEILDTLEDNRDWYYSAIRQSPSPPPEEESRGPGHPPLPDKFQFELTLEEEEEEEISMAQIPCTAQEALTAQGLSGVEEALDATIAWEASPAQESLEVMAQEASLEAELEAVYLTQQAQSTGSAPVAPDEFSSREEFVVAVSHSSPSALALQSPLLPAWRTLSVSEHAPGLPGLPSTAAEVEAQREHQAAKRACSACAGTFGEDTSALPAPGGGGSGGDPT

human recombinant PDE4B = molecular target: T5, human recombinant PDE4B (Homo sapiens, UniProt Q07343); assay: IC50 on human recombinant PDE4B; format: biochemical
T5 construct: gift of Ted J. Torphy (SmithKline Beecham Pharmaceuticals, King of Prussia, PA, USA)
T5 sequence (Q07343 whole entry): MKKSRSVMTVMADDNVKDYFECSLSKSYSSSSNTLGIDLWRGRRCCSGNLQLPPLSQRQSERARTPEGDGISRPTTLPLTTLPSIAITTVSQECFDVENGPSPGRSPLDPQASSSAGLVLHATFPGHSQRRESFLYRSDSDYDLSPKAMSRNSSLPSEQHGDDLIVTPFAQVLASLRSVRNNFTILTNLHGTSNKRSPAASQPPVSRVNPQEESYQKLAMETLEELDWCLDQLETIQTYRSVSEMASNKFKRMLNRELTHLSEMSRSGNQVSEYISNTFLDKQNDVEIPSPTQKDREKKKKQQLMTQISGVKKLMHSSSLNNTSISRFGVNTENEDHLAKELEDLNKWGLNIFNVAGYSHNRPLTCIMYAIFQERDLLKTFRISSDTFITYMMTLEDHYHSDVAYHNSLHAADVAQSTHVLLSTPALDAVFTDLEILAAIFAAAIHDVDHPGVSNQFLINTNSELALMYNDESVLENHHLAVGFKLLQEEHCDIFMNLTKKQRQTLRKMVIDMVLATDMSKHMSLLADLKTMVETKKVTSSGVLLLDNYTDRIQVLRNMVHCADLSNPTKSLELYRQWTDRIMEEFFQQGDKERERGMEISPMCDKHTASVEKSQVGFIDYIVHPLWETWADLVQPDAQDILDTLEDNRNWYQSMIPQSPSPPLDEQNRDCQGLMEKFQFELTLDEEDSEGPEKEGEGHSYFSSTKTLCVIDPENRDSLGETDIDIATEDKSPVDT

human recombinant PDE4C = molecular target: T6, human recombinant PDE4C (Homo sapiens, UniProt Q08493); assay: IC50 on human recombinant PDE4C; format: biochemical; conditions: 1 µM cAMP; with confidence interval
T6 construct: gift of Ted J. Torphy (SmithKline Beecham Pharmaceuticals, King of Prussia, PA, USA)
T6 sequence (Q08493 whole entry): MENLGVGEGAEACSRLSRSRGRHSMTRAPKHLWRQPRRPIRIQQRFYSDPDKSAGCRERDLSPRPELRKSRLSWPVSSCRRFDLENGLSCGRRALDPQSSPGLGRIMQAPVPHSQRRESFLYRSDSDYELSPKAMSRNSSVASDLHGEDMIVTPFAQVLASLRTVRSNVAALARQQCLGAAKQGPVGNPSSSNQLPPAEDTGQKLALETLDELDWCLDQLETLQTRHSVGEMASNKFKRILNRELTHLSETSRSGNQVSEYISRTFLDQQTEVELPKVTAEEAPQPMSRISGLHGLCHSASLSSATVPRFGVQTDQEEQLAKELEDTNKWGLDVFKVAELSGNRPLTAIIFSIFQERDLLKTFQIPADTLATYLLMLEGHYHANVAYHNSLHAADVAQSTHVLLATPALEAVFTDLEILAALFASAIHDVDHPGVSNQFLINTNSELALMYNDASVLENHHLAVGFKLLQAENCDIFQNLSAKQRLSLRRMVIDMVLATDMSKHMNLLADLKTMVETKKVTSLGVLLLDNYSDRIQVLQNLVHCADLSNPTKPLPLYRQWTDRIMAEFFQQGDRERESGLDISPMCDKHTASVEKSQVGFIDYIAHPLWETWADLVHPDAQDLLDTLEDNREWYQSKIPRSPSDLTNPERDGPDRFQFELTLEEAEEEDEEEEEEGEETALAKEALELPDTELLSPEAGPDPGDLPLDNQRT

human recombinant PDE4D = molecular target: T7, human recombinant PDE4D (Homo sapiens, UniProt Q08499); assay: IC50 on human recombinant PDE4D; format: biochemical
T7 construct: gift of Ted J. Torphy (SmithKline Beecham Pharmaceuticals, King of Prussia, PA, USA)
T7 sequence (Q08499 whole entry): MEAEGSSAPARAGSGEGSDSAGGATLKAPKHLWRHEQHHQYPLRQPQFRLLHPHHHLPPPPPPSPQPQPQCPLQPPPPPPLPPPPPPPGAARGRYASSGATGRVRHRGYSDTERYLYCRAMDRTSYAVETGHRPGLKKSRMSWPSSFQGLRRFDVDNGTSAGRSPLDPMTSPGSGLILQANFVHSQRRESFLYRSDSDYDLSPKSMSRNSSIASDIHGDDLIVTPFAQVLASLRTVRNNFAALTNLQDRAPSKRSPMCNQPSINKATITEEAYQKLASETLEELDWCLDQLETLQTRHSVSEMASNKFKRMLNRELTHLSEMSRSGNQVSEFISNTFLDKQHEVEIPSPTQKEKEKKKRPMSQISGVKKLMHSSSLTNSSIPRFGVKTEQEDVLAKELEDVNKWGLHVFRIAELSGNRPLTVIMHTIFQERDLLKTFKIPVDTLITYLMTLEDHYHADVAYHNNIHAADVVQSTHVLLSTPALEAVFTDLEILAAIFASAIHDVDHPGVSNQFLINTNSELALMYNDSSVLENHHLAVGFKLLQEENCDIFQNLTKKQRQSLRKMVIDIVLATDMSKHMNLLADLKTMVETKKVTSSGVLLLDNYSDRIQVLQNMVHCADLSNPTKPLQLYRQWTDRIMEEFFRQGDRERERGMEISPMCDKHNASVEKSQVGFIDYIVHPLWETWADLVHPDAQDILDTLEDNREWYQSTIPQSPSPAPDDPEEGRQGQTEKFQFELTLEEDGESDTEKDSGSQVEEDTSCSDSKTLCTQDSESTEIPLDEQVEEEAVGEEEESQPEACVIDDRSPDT

[2] = molecular target: High Affinity Rolipram Binding Site (HARBS); assay: 3H-rolipram binding assay on rat brain membranes; conditions: rat brain membrane, 4 nM 3H-rolipram; read-out: Ki toward 3H-rolipram binding (HARBS)
Method: The assay was done in 50 mM N-Tris hydroxymethyl methyl-2-aminoethane sulfonic acid/NaOH buffer, pH 7.6, containing 10 mM MgCl2, 0.1 M NaCl and 100 µM 5′AMP. […] Binding assays were started by the addition of 100 µL of rat brain membrane (0.9 mg protein/mL) to the reaction mixture and conducted at 23°C for 1 h under agitation and stopped by the addition of 3 mL of ice-cold reaction buffer and rapid vacuum filtration through Whatman GF/B filters that have been soaked in 0.3% (v/v) polyethylenimine. Filters were washed twice (3 ml of ice-cold reaction buffer without 5′AMP), dried and counted by liquid scintillation. […] Ki and confidence interval values of binding studies were determined by using one site fit Ki GraphPad Prism5 analysis.

PBLs from SLE patients = assay: TNFα secretion by PBLs from SLE patients; format: cell-based, human; conditions: for Effect on LPS-induced TNFα production: 5 µg/mL LPS, 24 h
Method: PBLs were isolated by centrifugation on Ficoll-Histopaque (Sigma-Aldrich) and cultured as described above using 5×10^5 cells/well. […] Culture supernatants were collected 24 h later and stored frozen at −20°C before TNFα level determination, as described above.

[3] = Solubility in injection vehicle PBS-10% ethanol; format: physicochemical; conditions: at 100 µg/100 µL
PDE4 [4] = tested on: PDE4; parameters: method as in PMID 9191951; conditions: text value with reference; cited from earlier work
human PBLs = tested on: human PBLs; parameters: method as in PMID 10640302; conditions: read-out: IC50 LPS-induced TNFα secretion by human PBLs; cited from earlier work
acid gastric secretion = tested on: acid gastric secretion; parameters: method as in PMID 10640302; conditions: cited from earlier work
[5] = 1 µM cAMP, with confidence interval

In the case of `CCCCn1c(=O)c2c(ncn2CC(C)=O)n(CCCC)c1=O` [Denbufylline, denbufylline], the IC50 (PDE1) is reported as 133000 ± 11000 nM, the IC50 (PDE4 [1]) is reported as 760 ± 50 nM and the “Inhibition rate of LPS-induced TNFα secretion” value (from here on “Inhibition rate”) (PBLs from MRL/lpr mice) is reported as 70%. For the same compound, the Median survival time (MRL/lpr lupus-prone mice) was 26.5 weeks, the “Mice with positive proteinuria” value (MRL/lpr lupus-prone mice) was “around 50%” and the “Age at which treated mice started dying” value (MRL/lpr lupus-prone mice) was 15 weeks.

In the case of `CNc1nc(C(F)(F)F)nc2c1ncn2Cc1ccccc1F` [NCS 613], the IC50 (PDE1) is reported as 39000 ± 2000 nM, the IC50 (PDE2) is reported as 24000 ± 3000 nM and the IC50 (PDE3) is reported as greater than 300000 nM. The “PDE4 selectivity relatively to PDE1” value (PDE4 [1]) was 930 fold, the “PDE4 selectivity relatively to PDE5” value (PDE4 [1]) was 112 fold and the IC50 (PDE4 [1]) was 42 ± 3 nM. The PDE5/PDE4 ratio (PDE4 [1]; ratio of IC50 values PDE5/PDE4) was 111.9, the IC50 (PDE5) was 4700 ± 100 nM and the IC50 (human recombinant PDE4A) was 44 nM. For the same compound, the IC50 (human recombinant PDE4A; [5]) was 43.6 nM, the IC50 (human recombinant PDE4B) was 48 nM and the IC50 (human recombinant PDE4B; [5]) was 48.1 nM. It also gave an IC50 (human recombinant PDE4C) of 1.4 nM, an IC50 (human recombinant PDE4D) of 14 nM and an IC50 (human recombinant PDE4D; [5]) of 14.4 nM. For the same compound, the Ki [2] was 148 nM, the “Inhibition rate” value (PBLs from MRL/lpr mice) was 54% and the “Decrease of basal TNFα secretion level” value (PBLs from SLE patients; 10 µM, no LPS, cells from patient 2) was 67%. For the same compound, the “Effect on LPS-induced TNFα production” value (PBLs from SLE patients; patient SLE1, 0.1 µM) was “No effect”, the “Effect on LPS-induced TNFα production” value (PBLs from SLE patients; patient SLE1, 1 µM) was “significantly suppressed” and the “Effect on LPS-induced TNFα production” value (PBLs from SLE patients; patient SLE1, 10 µM) was “significantly suppressed”. For the same compound, the “Solubility in PBS-10% ethanol” value [3] was “not soluble”, the IC50 (PDE4 [4]) was 42 nM and the IC50 (human PBLs) was 18 nM. For the same compound, the “Induction of acid gastric secretion” value (acid gastric secretion) was “does not induce”, the “Age of the first mouse that developed proteinuria” value (MRL/lpr lupus-prone mice; 30 µg i.v. at 5, 7, 9 and 13 weeks) was 18 week-old and the “Effect on survival of MRL/lpr mice” value (MRL/lpr lupus-prone mice; 30 µg i.v. at 5, 7, 9 and 13 weeks, P = 0.005) was “significantly increased”. The Mice still alive (MRL/lpr lupus-prone mice; at 31 weeks, 30 µg i.v. at 5, 7, 9 and 13 weeks) was 50%, the “Proteinuria level compared to the control group” value (MRL/lpr lupus-prone mice) was “significantly lower” and the “Age at which treated mice started dying” value (MRL/lpr lupus-prone mice) was 26 weeks.

Compound `CC(=O)CCCCn1c(=O)c2c(ncn2C)n(C)c1=O` [Pentoxifylline, pentoxifylline] has an IC50 (PDE1) of 236000 ± 20000 nM, an IC50 (PDE2) of 119000 ± 10000 nM and an IC50 (PDE4 [1]) of 135000 ± 11000 nM. For the same compound, the IC50 (PDE5) was 74000 ± 6000 nM, the “Inhibition rate” value (PBLs from MRL/lpr mice) was 51% and the Median survival time (MRL/lpr lupus-prone mice) was 27.5 weeks. For the same compound, the “Mice with positive proteinuria” value (MRL/lpr lupus-prone mice) was “around 50%”, the “Proteinuria level compared to the control group” value (MRL/lpr lupus-prone mice) was “significantly lower” and the “Age at which treated mice started dying” value (MRL/lpr lupus-prone mice) was 22 weeks.
